# Experimental data taken from article PMC12275099, “VX-445 (elexacaftor) inhibits chloride secretion across human bronchial epithelial cells by directly blocking KCa3.1 channels” (PNAS Nexus, 2025).
# Values joined by “and” are separate entries in the source; they are usually repeats but may differ in a detail not shown here. Equal values may be shown once. Read-outs that look alike come from different tables or passages of the source.
# What was measured:
# [1] = tested on: primary WT CFTR-expressing HBEs; experiment: Ussing chamber Isc, forskolin-stimulated Cl- secretion; assay type: cell-based, human; details: for Isc in the presence of VX-445: single filters
# From the text: (§1) Primary human bronchial epithelial cells (HBEs) were collected from unused or discarded samples from the Center for Organ Recovery and Education via the University of Pittsburgh Pulmonary, Allergy, Critical Care, and Sleep Medicine Lung Biobank and Repository. All experimental procedures involving the use of HBEs were approved by the institutional review board (IRB STUDY19090084) and the Committee for Oversight of Research and Clinical Training Involving Decedents (CORID number 451) at the University of Pittsburgh. At all times, authors were blind to the identity of HBE donors. HBEs were cultured using the Vertex method ([72]). Studies were carried out on WT CFTR HBEs from 11 ([13]) donors and homozygous F508del/F508del CFTR HBEs from five ([5]) separate donors. HBEs were plated on Costar Transwell permeable supports ([…], 6.5 mm insert, polyester membrane, Corning) and grown at an air–liquid interface for 5+ weeks in HBE differentiation medium containing 2% Ultroser-G. Basolateral media were replaced three times per week. For whole-cell patch-clamp studies, HBEs were maintained in BronchiaLife airway media (LifeLine Cell Technology, LS-1047) and plated onto poly-L-lysine-coated coverslips (see below).
# (§2) Costar Transwell inserts were mounted in a modified Ussing chamber (P2300, Physiologic Instruments) and the monolayers continuously short-circuited (VCC MC8, Physiologic Instruments) by forcing the transepithelial voltage to 0 mV. Short-circuit current (Isc) measurements were taken in symmetric solutions, containing (in mM): 120 NaCl, 25 NaHCO3, 3.3 KH2PO4, 0.8 K2HPO4, 1.2 CaCl2, 1.2 MgCl2, and 10 glucose. The pH of the solution is 7.4 when gassed with 95% O2–5% CO2 at 37°C. Compounds were added cumulatively following the establishment of a new stable current response. Amiloride was added to the apical membrane, while all other compounds were added to both membranes due to their lipophilic nature. In all experiments, 10 µM amiloride was used to inhibit sodium absorption. Percent inhibition was calculated as the change in Isc (ΔIsc) between the forskolin or DCEBIO stable current level and the Isc following addition of the compound being assessed divided by the ΔIsc between the stable forskolin- or DCEBIO-induced Isc and the Isc following bumetanide addition.
# [2] = tested on: preconstricted mesenteric artery; parameters: method as in PMID 38954478; details: cited from earlier work
# WT CFTR HBEs = experiment: Ussing chamber Isc, DCEBIO-induced Cl- secretion; assay type: cell-based, human; details: VX-445 10 µM
# From the text: as §1, §2
smiles,measurement,setting,value
"Cc1nn(C)cc1S(=O)(=O)NC(=O)c1ccc(-n2ccc(OCC(C)(C)C(F)(F)F)n2)nc1N1C[C@@H](C)CC1(C)C [VX-445, elexacaftor]",percent inhibition of forskolin-stimulated Isc from control,"[1]; 5 µM VX-445, Fig 1D",33%
same,Isc in the presence of VX-445,"[1]; Fig 1F, VX-445 10 µM after forskolin and bumetanide",21 and 18 and 15 and 14 and 16 and 19 and 27 and 20
same,Isc in the presence of VX-445,"[1]; Fig 2B, VX-445 10 µM after forskolin",12 and 11 and 16 and 20 and 15 and 21 and 19 and 14
same,inhibition at 1 µM,"[1]; Homo sapiens, 1 µM VX-445, Fig 1D, read-out: percent inhibition of forskolin-stimulated Isc from control",0%
same,inhibition at 10 µM,"[1]; Homo sapiens, VX-445 10 µM after VX-661 10 µM, nine filters from three donors, read-out: inhibition of forskolin-stimulated current subsequent to VX-661",47 ± 2%
same,inhibition at 10 µM,"[1]; Homo sapiens, VX-445 10 µM, four donors, n = 13 (TRAM-34 series), read-out: inhibition of the forskolin-stimulated current",56 ± 2%
same,inhibition at 10 µM,"[1]; Homo sapiens, VX-445 10 µM, 16 experiments from three donors (paxilline series), read-out: inhibition of the forskolin-stimulated Isc",45 ± 2%
same,decrease of the forskolin-induced Cl- current,"[1]; VX-445 10 µM, 35 filters from five donors",47 ± 2%
same,effect on the bumetanide-insensitive current,"[1]; applied after forskolin and bumetanide, VX-445 10 µM, acetazolamide 1 µM",had no effect
same,effect on preconstricted mesenteric artery,[2],capable of relaxing preconstricted mesenteric artery
same,inhibition at 10 µM,"WT CFTR HBEs; Homo sapiens, four donors, n = 12 (TRAM-34 series), read-out: inhibition of the DCEBIO-induced current",69 ± 3%
same,decrease of the DCEBIO-induced Cl- current,WT CFTR HBEs; n = 19,54 ± 2%
